Data as given in the NIST ThermoML archive (doi:10.1016/j.jct.2013.05.051).
± gives the expanded uncertainty stated by the source.

Assay: xn = mol fraction of the nth substance listed
Details: Liquid, Vibrating tube method

CCCCCCCO [heptan-1-ol] + CCCCCCC
mass density [kg/m3]
Details	x1 = 0.1493	x1 = 0.3215	x1 = 0.5226	x1 = 0.6698	x1 = 0.8469	x1 = 1
333.15 K, 140000 kPa	–	779.8 ± 1.9	804.5 ± 1.9	823.2 ± 1.9	851.4 ± 4.2	864.3 ± 1.9
353.15 K, 100 kPa	654.4 ± 1.4	676.1 ± 1.4	705.8 ± 1.4	728.5 ± 1.5	762.3 ± 4.1	778.1 ± 1.5
353.15 K, 1000 kPa	655.7 ± 1.4	677.3 ± 1.4	706.8 ± 1.4	729.4 ± 1.5	763.1 ± 4	778.8 ± 1.5
353.15 K, 5000 kPa	661.2 ± 1.4	682.2 ± 1.4	711.3 ± 1.4	733.6 ± 1.5	766.7 ± 4	782.3 ± 1.5
353.15 K, 10000 kPa	667.4 ± 1.4	687.9 ± 1.4	716.4 ± 1.5	738.3 ± 1.5	771 ± 4	786.3 ± 1.5
353.15 K, 15000 kPa	673.1 ± 1.5	693.2 ± 1.5	721.3 ± 1.5	742.9 ± 1.5	775.2 ± 4	790.2 ± 1.6
353.15 K, 20000 kPa	678.4 ± 1.5	698.2 ± 1.5	725.8 ± 1.5	747.1 ± 1.5	779 ± 4	793.9 ± 1.6
353.15 K, 25000 kPa	683.2 ± 1.5	702.8 ± 1.5	730.1 ± 1.5	751.1 ± 1.5	782.7 ± 4.1	797.3 ± 1.6
353.15 K, 30000 kPa	687.9 ± 1.5	707.1 ± 1.5	734.2 ± 1.5	755 ± 1.5	786.3 ± 4.1	800.7 ± 1.6
353.15 K, 35000 kPa	692.2 ± 1.5	711.1 ± 1.5	738 ± 1.5	758.6 ± 1.5	789.6 ± 4.1	804 ± 1.6
353.15 K, 40000 kPa	696.2 ± 1.5	715 ± 1.5	741.6 ± 1.5	762 ± 1.6	792.8 ± 4.1	807.1 ± 1.6
353.15 K, 45000 kPa	700.2 ± 1.5	718.7 ± 1.6	745.1 ± 1.6	765.4 ± 1.6	795.9 ± 4.1	810 ± 1.7
353.15 K, 50000 kPa	704 ± 1.6	722.4 ± 1.6	748.5 ± 1.6	768.7 ± 1.6	799 ± 4.1	813 ± 1.7
353.15 K, 55000 kPa	707.5 ± 1.6	725.7 ± 1.6	751.7 ± 1.6	771.8 ± 1.6	801.9 ± 4.1	815.8 ± 1.7
353.15 K, 60000 kPa	711 ± 1.6	729 ± 1.6	754.9 ± 1.6	774.8 ± 1.6	804.7 ± 4.1	818.6 ± 1.7
353.15 K, 65000 kPa	714.3 ± 1.6	732.2 ± 1.6	757.9 ± 1.6	777.7 ± 1.6	807.5 ± 4.1	821.2 ± 1.7
353.15 K, 70000 kPa	717.5 ± 1.7	735.2 ± 1.7	760.9 ± 1.7	780.5 ± 1.7	810.2 ± 4.1	823.8 ± 1.7
353.15 K, 80000 kPa	723.5 ± 1.7	741 ± 1.7	766.4 ± 1.7	785.9 ± 1.7	815.2 ± 4.1	828.7 ± 1.8
353.15 K, 90000 kPa	729.1 ± 1.7	746.5 ± 1.7	771.7 ± 1.7	791.1 ± 1.7	820.1 ± 4.1	833.5 ± 1.8
353.15 K, 100000 kPa	734.4 ± 1.8	751.6 ± 1.8	776.7 ± 1.8	795.9 ± 1.8	824.8 ± 4.1	837.9 ± 1.8
353.15 K, 110000 kPa	739.6 ± 1.8	756.6 ± 1.8	781.5 ± 1.8	800.6 ± 1.8	829.3 ± 4.2	842.3 ± 1.9
353.15 K, 120000 kPa	744.3 ± 1.9	761.2 ± 1.9	786 ± 1.8	804.9 ± 1.8	833.4 ± 4.2	846.4 ± 1.9
353.15 K, 130000 kPa	748.8 ± 1.9	765.6 ± 1.9	790.2 ± 1.9	809 ± 1.9	837.5 ± 4.2	850.3 ± 1.9
353.15 K, 140000 kPa	753.2 ± 2	769.9 ± 1.9	794.6 ± 1.9	813.2 ± 1.9	841.4 ± 4.2	854.3 ± 1.9
373.15 K, 100 kPa	–	–	–	–	–	761.9 ± 7.6
373.15 K, 1000 kPa	636.8 ± 1.4	658.8 ± 1.4	688.9 ± 1.4	712.2 ± 1.4	746.6 ± 4	762.8 ± 1.5
373.15 K, 5000 kPa	643.2 ± 1.4	664.6 ± 1.4	694.1 ± 1.4	716.9 ± 1.5	750.7 ± 4	766.6 ± 1.5
373.15 K, 10000 kPa	650.5 ± 1.4	671.2 ± 1.4	700 ± 1.5	722.4 ± 1.5	755.5 ± 4	771.1 ± 1.5
373.15 K, 15000 kPa	656.9 ± 1.5	677.2 ± 1.5	705.5 ± 1.5	727.5 ± 1.5	760.2 ± 4	775.5 ± 1.6
373.15 K, 20000 kPa	662.9 ± 1.5	682.7 ± 1.5	710.6 ± 1.5	732.2 ± 1.5	764.4 ± 4	779.5 ± 1.6
373.15 K, 25000 kPa	668.4 ± 1.5	687.9 ± 1.5	715.4 ± 1.5	736.7 ± 1.5	768.6 ± 4.1	783.4 ± 1.6
373.15 K, 30000 kPa	673.6 ± 1.5	692.7 ± 1.5	719.9 ± 1.5	740.9 ± 1.5	772.4 ± 4.1	787.1 ± 1.6
373.15 K, 35000 kPa	678.4 ± 1.5	697.2 ± 1.5	724.1 ± 1.5	744.9 ± 1.6	776 ± 4.1	790.6 ± 1.6
373.15 K, 40000 kPa	682.8 ± 1.5	701.4 ± 1.5	728.1 ± 1.6	748.7 ± 1.6	779.7 ± 4.1	794 ± 1.6
373.15 K, 45000 kPa	687.2 ± 1.6	705.6 ± 1.6	732 ± 1.6	752.4 ± 1.6	783 ± 4.1	797.2 ± 1.7
373.15 K, 50000 kPa	691.2 ± 1.6	709.3 ± 1.6	735.5 ± 1.6	755.9 ± 1.6	786.3 ± 4.1	800.3 ± 1.7
373.15 K, 55000 kPa	695.1 ± 1.6	713 ± 1.6	739.1 ± 1.6	759.2 ± 1.6	789.4 ± 4.1	803.4 ± 1.7
373.15 K, 60000 kPa	698.8 ± 1.6	716.6 ± 1.6	742.4 ± 1.6	762.4 ± 1.6	792.4 ± 4.1	806.3 ± 1.7
373.15 K, 65000 kPa	702.3 ± 1.6	720.1 ± 1.6	745.7 ± 1.7	765.5 ± 1.7	795.5 ± 4.1	809.2 ± 1.7
373.15 K, 70000 kPa	705.7 ± 1.7	723.2 ± 1.7	748.8 ± 1.7	768.5 ± 1.7	798.2 ± 4.1	811.9 ± 1.7
373.15 K, 80000 kPa	712.2 ± 1.7	729.5 ± 1.7	754.8 ± 1.7	774.4 ± 1.7	803.7 ± 4.1	817.2 ± 1.8
373.15 K, 90000 kPa	718.3 ± 1.8	735.4 ± 1.8	760.4 ± 1.8	779.8 ± 1.8	808.9 ± 4.1	822.3 ± 1.8
373.15 K, 100000 kPa	723.8 ± 1.8	740.9 ± 1.8	765.7 ± 1.8	784.9 ± 1.8	813.8 ± 4.2	827 ± 1.8
373.15 K, 110000 kPa	729.2 ± 1.9	746.1 ± 1.8	770.7 ± 1.8	789.8 ± 1.8	818.5 ± 4.2	831.6 ± 1.9
373.15 K, 120000 kPa	734.3 ± 1.9	751 ± 1.9	775.5 ± 1.9	794.4 ± 1.9	822.9 ± 4.2	835.9 ± 1.9
373.15 K, 130000 kPa	739.1 ± 2	755.7 ± 1.9	780.1 ± 1.9	798.9 ± 1.9	827.3 ± 4.2	840.2 ± 1.9
373.15 K, 140000 kPa	743.7 ± 2	760.2 ± 2	784.5 ± 2	803.1 ± 1.9	831.4 ± 4.2	844.1 ± 2
393.15 K, 100 kPa	–	–	–	–	–	744.9 ± 7.5
393.15 K, 1000 kPa	617.4 ± 1.4	639.3 ± 1.4	670.1 ± 1.4	693.9 ± 1.4	729.1 ± 4	745.8 ± 1.5
393.15 K, 5000 kPa	625 ± 1.4	646.2 ± 1.4	676.1 ± 1.4	699.4 ± 1.5	733.9 ± 4	750.2 ± 1.5
393.15 K, 10000 kPa	633.5 ± 1.4	653.8 ± 1.4	683 ± 1.5	705.6 ± 1.5	739.3 ± 4	755.3 ± 1.5
393.15 K, 15000 kPa	640.9 ± 1.5	660.7 ± 1.5	689.2 ± 1.5	711.4 ± 1.5	744.5 ± 4	760.1 ± 1.6
393.15 K, 20000 kPa	647.6 ± 1.5	666.9 ± 1.5	694.9 ± 1.5	716.6 ± 1.5	749.2 ± 4	764.6 ± 1.6
393.15 K, 25000 kPa	653.8 ± 1.5	672.7 ± 1.5	700.2 ± 1.5	721.6 ± 1.5	753.7 ± 4.1	768.8 ± 1.6
393.15 K, 30000 kPa	659.5 ± 1.5	678 ± 1.5	705.2 ± 1.5	726.3 ± 1.5	758 ± 4.1	772.9 ± 1.6
393.15 K, 35000 kPa	664.8 ± 1.5	683.1 ± 1.5	709.8 ± 1.5	730.6 ± 1.6	762.1 ± 4.1	776.8 ± 1.6
393.15 K, 40000 kPa	669.7 ± 1.5	687.7 ± 1.6	714.2 ± 1.6	734.8 ± 1.6	765.9 ± 4.1	780.4 ± 1.6
393.15 K, 45000 kPa	674.3 ± 1.6	692.1 ± 1.6	718.3 ± 1.6	738.8 ± 1.6	769.6 ± 4.1	783.9 ± 1.7
393.15 K, 50000 kPa	678.7 ± 1.6	696.3 ± 1.6	722.3 ± 1.6	742.6 ± 1.6	773.1 ± 4.1	787.3 ± 1.7
393.15 K, 55000 kPa	683 ± 1.6	700.4 ± 1.6	726.2 ± 1.6	746.3 ± 1.6	776.6 ± 4.1	790.7 ± 1.7
393.15 K, 60000 kPa	687 ± 1.6	704.1 ± 1.6	729.8 ± 1.6	749.7 ± 1.7	779.8 ± 4.1	793.8 ± 1.7
393.15 K, 65000 kPa	690.7 ± 1.7	707.8 ± 1.7	733.2 ± 1.7	753.1 ± 1.7	782.9 ± 4.1	796.8 ± 1.7
393.15 K, 70000 kPa	694.4 ± 1.7	711.4 ± 1.7	736.7 ± 1.7	756.4 ± 1.7	786.1 ± 4.1	799.8 ± 1.8
393.15 K, 80000 kPa	701.3 ± 1.7	718.1 ± 1.7	743.1 ± 1.7	762.5 ± 1.7	791.9 ± 4.1	805.5 ± 1.8
393.15 K, 90000 kPa	707.8 ± 1.8	724.3 ± 1.8	749.2 ± 1.8	768.3 ± 1.8	797.5 ± 4.2	810.9 ± 1.8
393.15 K, 100000 kPa	713.7 ± 1.8	730.1 ± 1.8	754.7 ± 1.8	773.8 ± 1.8	802.6 ± 4.2	815.9 ± 1.9
393.15 K, 110000 kPa	719.4 ± 1.9	735.7 ± 1.9	760.1 ± 1.9	778.9 ± 1.9	807.7 ± 4.2	820.8 ± 1.9
393.15 K, 120000 kPa	724.6 ± 1.9	740.8 ± 1.9	765 ± 1.9	783.8 ± 1.9	812.3 ± 4.2	825.3 ± 1.9
393.15 K, 130000 kPa	729.7 ± 2	745.7 ± 2	769.8 ± 1.9	788.5 ± 1.9	816.8 ± 4.2	829.8 ± 2
393.15 K, 140000 kPa	734.6 ± 2	750.5 ± 2	774.5 ± 2	793 ± 2	821.3 ± 4.2	834 ± 2
